Test system: HSSY-II complex spheroid growth, percent test/control
Assay: Anticancer human tumor HSSY-II cell line growth inhibition [Asc];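 also: spheroids exposed to drug for 7 days before reading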
Settings: for IC50: curve of first compound; for viability, T/C: stronger effect = lower value
Procedure, shortened: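 Tumor cells were grown as multicellular spheroids with stromal HUVEC and mesenchymal stem cells and treated singly or in combination. Concentrations fell in half-log steps from the clinical Cmax, or from 10 microM where none was known.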

[1] = second compound 0.03 µM, first compound 0.00316 µM
[2] = second compound 0.03 µM, first compound 0.01 µM
[3] = second compound 0.03 µM, first compound 0.0316 µM
[4] = second compound 0.03 µM, first compound 0.1 µM
[5] = second compound 0.0949 µM, first compound 0.00316 µM
[6] = second compound 0.0949 µM, first compound 0.01 µM
[7] = second compound 0.0949 µM, first compound 0.0316 µM
[8] = second compound 0.0949 µM, first compound 0.1 µM
[9] = second compound 0.3 µM, first compound 0.00316 µM
[10] = second compound 0.3 µM, first compound 0.01 µM
[11] = second compound 0.3 µM, first compound 0.0316 µM
[12] = second compound 0.3 µM, first compound 0.1 µM
[13] = second compound 0.949 µM, first compound 0.00316 µM
[14] = second compound 0.949 µM, first compound 0.01 µM
[15] = second compound 0.949 µM, first compound 0.0316 µM
[16] = second compound 0.949 µM, first compound 0.1 µM
[17] = second compound 3 µM, first compound 0.00316 µM
[18] = second compound 3 µM, first compound 0.01 µM
[19] = second compound 3 µM, first compound 0.0316 µM
[20] = second compound 3 µM, first compound 0.1 µM

COc1c(OCCCN2CCOCC2)ccc2c3n(c(=NC(=O)c4cnc(N)nc4)nc12)CCN3 + CCN1C(C(=O)NC23CCC(C(=O)O)(CC2)CC3)C(c2cccc(Cl)c2F)C2(C(=O)Nc3cc(Cl)ccc32)C12CCCCC2
IC50 (second compound 0.03 µM): 26.9 nM
IC50 (second compound 0.0949 µM): 3.62 nM
IC50 (second compound 0.3 µM): < 3.16 nM
IC50 (second compound 0.949 µM): < 3.16 nM
IC50 (second compound 3 µM): < 3.16 nM
viability, T/C [1]: 83.3%
viability, T/C [2]: 70.4%
viability, T/C [3]: 42.1%
viability, T/C [4]: 32.5%
viability, T/C (second compound 0.03 µM, first compound 0.316 µM): 21%
viability, T/C (second compound 0.03 µM, first compound 1 µM): 8.92%
viability, T/C [5]: 50.1%
viability, T/C [6]: 44.8%
viability, T/C [7]: 27.9%
viability, T/C [8]: 18.8%
viability, T/C (second compound 0.0949 µM, first compound 0.316 µM): 11.1%
viability, T/C (second compound 0.0949 µM, first compound 1 µM): 5.81%
viability, T/C [9]: 27.8%
viability, T/C [10]: 18.8%
viability, T/C [11]: 13.5%
viability, T/C [12]: 9.78%
viability, T/C (second compound 0.3 µM, first compound 0.316 µM): 5.2%
viability, T/C (second compound 0.3 µM, first compound 1 µM): 1.51%
viability, T/C [13]: 5.84%
viability, T/C [14]: 4.85%
viability, T/C [15]: 3.58%
viability, T/C [16]: 2.14%
viability, T/C (second compound 0.949 µM, first compound 0.316 µM): 1.08%
viability, T/C (second compound 0.949 µM, first compound 1 µM): 0.52%
viability, T/C [17]: 1.52%
viability, T/C [18]: 1.05%
viability, T/C [19]: 0.78%
viability, T/C [20]: 0.45%
viability, T/C (second compound 3 µM, first compound 0.316 µM): 0.29%
viability, T/C (second compound 3 µM, first compound 1 µM): 0.25%

NC(=O)C(=Cn1cnc(-c2cc(C(F)(F)F)cc(C(F)(F)F)c2)n1)c1cncnc1 + CCN1C(C(=O)NC23CCC(C(=O)O)(CC2)CC3)C(c2cccc(Cl)c2F)C2(C(=O)Nc3cc(Cl)ccc32)C12CCCCC2
IC50 (second compound 0.03 µM): 10.5 nM
IC50 (second compound 0.0949 µM): 3.06 nM
IC50 (second compound 0.3 µM): < 0.949 nM
IC50 (second compound 0.949 µM): < 0.949 nM
IC50 (second compound 3 µM): < 0.949 nM
viability, T/C (second compound 0.03 µM, first compound 0.000949 µM): 97.5%
viability, T/C (second compound 0.03 µM, first compound 0.003 µM): 76%
viability, T/C (second compound 0.03 µM, first compound 0.00949 µM): 51.1%
viability, T/C (second compound 0.03 µM, first compound 0.03 µM): 31.9%
viability, T/C (second compound 0.03 µM, first compound 0.0949 µM): 7.28%
viability, T/C (second compound 0.03 µM, first compound 0.3 µM): 0.44%
viability, T/C (second compound 0.0949 µM, first compound 0.000949 µM): 63.5%
viability, T/C (second compound 0.0949 µM, first compound 0.003 µM): 52.7%
viability, T/C (second compound 0.0949 µM, first compound 0.00949 µM): 26.6%
viability, T/C (second compound 0.0949 µM, first compound 0.03 µM): 15.9%
viability, T/C (second compound 0.0949 µM, first compound 0.0949 µM): 2.85%
viability, T/C (second compound 0.0949 µM, first compound 0.3 µM): 0.23%
viability, T/C (second compound 0.3 µM, first compound 0.000949 µM): 21.4%
viability, T/C (second compound 0.3 µM, first compound 0.003 µM): 18%
viability, T/C (second compound 0.3 µM, first compound 0.00949 µM): 11.6%
viability, T/C (second compound 0.3 µM, first compound 0.03 µM): 3.8%
viability, T/C (second compound 0.3 µM, first compound 0.0949 µM): 0.31%
viability, T/C (second compound 0.3 µM, first compound 0.3 µM): 0.12%
viability, T/C (second compound 0.949 µM, first compound 0.000949 µM): 7.25%
viability, T/C (second compound 0.949 µM, first compound 0.003 µM): 5.2%
viability, T/C (second compound 0.949 µM, first compound 0.00949 µM): 2.01%
viability, T/C (second compound 0.949 µM, first compound 0.03 µM): 0.49%
viability, T/C (second compound 0.949 µM, first compound 0.0949 µM): 0.03%
viability, T/C (second compound 0.949 µM, first compound 0.3 µM): 0.14%
viability, T/C (second compound 3 µM, first compound 0.000949 µM): 2.04%
viability, T/C (second compound 3 µM, first compound 0.003 µM): 1.1%
viability, T/C (second compound 3 µM, first compound 0.00949 µM): 0.3%
viability, T/C (second compound 3 µM, first compound 0.03 µM): 0.2%
viability, T/C (second compound 3 µM, first compound 0.0949 µM): 0.16%
viability, T/C (second compound 3 µM, first compound 0.3 µM): 0.26%

NC1CCC(NC2CC2c2ccccc2)CC1 (stereo not given) + CCN1C(C(=O)NC23CCC(C(=O)O)(CC2)CC3)C(c2cccc(Cl)c2F)C2(C(=O)Nc3cc(Cl)ccc32)C12CCCCC2
IC50 (second compound 0.03 µM): > 100 nM
IC50 (second compound 0.0949 µM): 2.07 nM
IC50 (second compound 0.3 µM): < 0.316 nM
IC50 (second compound 0.949 µM): < 0.316 nM
IC50 (second compound 3 µM): < 0.316 nM
viability, T/C (second compound 0.03 µM, first compound 0.000316 µM): 61.3%
viability, T/C (second compound 0.03 µM, first compound 0.001 µM): 64%
viability, T/C [1]: 58.6%
viability, T/C [2]: 59.8%
viability, T/C [3]: 55.8%
viability, T/C [4]: 57%
viability, T/C (second compound 0.0949 µM, first compound 0.000316 µM): 51.2%
viability, T/C (second compound 0.0949 µM, first compound 0.001 µM): 51.1%
viability, T/C [5]: 49.1%
viability, T/C [6]: 47.7%
viability, T/C [7]: 51.1%
viability, T/C [8]: 44.3%
viability, T/C (second compound 0.3 µM, first compound 0.000316 µM): 27.9%
viability, T/C (second compound 0.3 µM, first compound 0.001 µM): 24.9%
viability, T/C [9]: 26.9%
viability, T/C [10]: 23.3%
viability, T/C [11]: 25.6%
viability, T/C [12]: 27%
viability, T/C (second compound 0.949 µM, first compound 0.000316 µM): 8.22%
viability, T/C (second compound 0.949 µM, first compound 0.001 µM): 6.71%
viability, T/C [13]: 6.88%
viability, T/C [14]: 6.14%
viability, T/C [15]: 7.47%
viability, T/C [16]: 6.92%
viability, T/C (second compound 3 µM, first compound 0.000316 µM): 1.71%
viability, T/C (second compound 3 µM, first compound 0.001 µM): 1.81%
viability, T/C [17]: 1.94%
viability, T/C [18]: 1.61%
viability, T/C [19]: 1.43%
viability, T/C [20]: 2.12%

Source: PubChem BioAssay AID1963444 (Molecular Pharmacology Branch, DTP, NCI, 2024)
